Assay results: article PMC6403309, “Hybrid approach to sieve out natural compounds against dual targets in Alzheimer’s Disease” (Scientific Reports, 2019)
Where two headings read alike, the source gives them in different places.

Assays:
Aβ25–35 = target: T1, Aβ25–35 (Homo sapiens, UniProt P05067); assay: Thioflavin T assay of Aβ25–35 aggregation; type: biochemical; conditions: compound 100 µM co-incubated with Aβ25–35 100 µM, 72 hours, 37 °C
T1 construct: Aβ25–35 was bought from Anaspec in powdered form; purchased Anaspec
Description: The dye Thioflavin T (ThT), is used to quantify amyloid aggregates. On binding to the beta sheets of amyloid aggregates, the rotation of the ThT rings is hampered thus preserving the excited states leading to fluorescence enhancement. The Aβ25–35 sample was prepared by dissolving it in HFIP to remove any preformed aggregates and keeping aliquots at −80 °C. On the day of assay, aliquot of the HFIP dissolved Aβ25–35 (final concentration 100 µM) was lyophilized. Thereafter the lyophilized sample was dissolved in phosphate buffer. A stock solution of the compounds with concentration of 1 mM was prepared in DMSO. The compounds with final concentration of 100 µM were co-incubated with Aβ25–35 for 72 hours at 37 °C. The co-incubated samples were diluted five times. A stock solution of Thioflavin T was prepared in DMSO and final concentration of 15 µM was added. The fluorescence was measured by excitation at 440 nm and emission at 460–550 nm.

BACE1 = target: T2, BACE1 (Homo sapiens, UniProt P56817); assay: BACE1 inhibition assay (FRET activity assay kit); type: biochemical; conditions: for inhibition at 1 µM: read-out: Single point inhibition % (SPI1μM)
T2 construct: purchased Sigma Aldrich
T2 sequence (P56817 46-501): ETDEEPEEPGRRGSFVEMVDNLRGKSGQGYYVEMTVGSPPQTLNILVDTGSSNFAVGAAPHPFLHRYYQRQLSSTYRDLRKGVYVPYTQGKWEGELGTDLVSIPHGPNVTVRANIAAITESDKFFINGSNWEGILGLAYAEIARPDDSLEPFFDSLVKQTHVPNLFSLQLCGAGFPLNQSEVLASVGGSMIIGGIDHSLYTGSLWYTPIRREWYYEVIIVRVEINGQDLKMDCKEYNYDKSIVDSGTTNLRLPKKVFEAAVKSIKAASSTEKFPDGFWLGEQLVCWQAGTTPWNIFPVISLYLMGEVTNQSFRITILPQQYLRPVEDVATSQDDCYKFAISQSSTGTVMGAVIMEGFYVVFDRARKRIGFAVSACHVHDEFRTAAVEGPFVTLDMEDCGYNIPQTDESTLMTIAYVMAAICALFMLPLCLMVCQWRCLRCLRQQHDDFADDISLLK

Structure (SMILES)	reduction in the fibril formation (Aβ25–35)	BACE1 inhibition activity (in words) (BACE1; compound 1 µM)	inhibition at 1 µM (BACE1; compound 1 µM, 37 °C, 2 hours) [%]	inhibition at 1 µM (BACE1) [%]
COC(=O)C(Cc1ccccc1)NC(=O)COc1cc(O)c2c(=O)c(-c3ccc4c(c3)OCCO4)coc2c1 (stereo not shown) [ZINC01758814]	more than 50%	moderate BACE1 inhibition activity	17	
O=c1c(O)c(-c2ccc(O)c(O)c2)oc2c(O)c(O)cc(O)c12 [Gossypetin, reference compound]				4.6
